“Also recorded” adds a separate entry of the source. Marks after values point to notes of the source that are not given here.
How the values were obtained:
[1] = Stability of CLF in whole human blood at 37° C. (Test 1), HPLC-MS/MS; format: in vitro ADME; conditions: for CLF concentration: whole human blood spiked 100 ng/ml, mean ± SEM (n = 2); for CLF remaining: whole human blood, vs To
Procedure: Fifty microliters (50 μl) of the working solution of CLF were added to 5 ml of human EDTA blood. The final concentration of CLF in blood was of 100 ng/ml. One aliquot of 1 ml of blood was taken (To) and the remaining solution was incubated at 37° C. in a water bath for 30 min, 120 min and 24 h. At the end of each incubation time, 1 ml of blood was taken and plasma was prepared by centrifugation of samples at 2000 g (4° C.) for 10 min. Two equal aliquots of 200 μl were prepared and stored at −70° C. until further analysis. […] Thus, a stock solution of IS at 100 μg/ml in acetonitrile was 50-fold diluted in acetonitrile in order to obtain a final concentration of 2 μg/ml. Then, 200 μl of this solution were added to each plasma sample in order to precipitate the proteins. Samples were vortexed/mixed and centrifuged 5 min at 20,000 g (4° C.). After centrifugation, the clear supernatant (around 250 μl) was transferred into 1.2 ml HPLC glass vials and sealed. Samples were placed into the refrigerated autosampler and 20 μl were injected into the HPLC-MS/MS system. Test samples were injected twice. […] The injected volume of sample was 20 μl and the “full loop” mode was applied. The temperature of the analytical column was kept at 30° C. CLF and its IS were separated on an Acclaim 120 C18 column (5 μm, 2.1×100 mm, Dionex) by elution with a linear gradient of acetonitrile in water as described in Table 6. An ion trap mass spectrometer equipped with an ESI interface was operated in the positive ionization mode. For each compound, the most abundant ion formed in MS was selected for MS/MS fragmentations. In order to increase the sensitivity and the specificity of the method, the MRM mode was selected. The most specific daughter ions formed in MS/MS were used for quantification.

[2] = Solubility and stability of CLF in working solutions by HPLC-UV-MS (254 nm); format: physicochemical; conditions: [CLF] = 50 μg/ml
Procedure: HPLC separation was operated with a mixture of water and acetonitrile containing 0.1% of formic acid and the reversed phase mode was selected. The injected volume of sample was 20 μl and the “full loop” mode was applied. The temperature of the analytical column was kept at 30° C. CLF, its metabolites and its IS were separated on a SunFire C18 column (5 μm, 2.1×100 mm, Waters) by elution with a linear gradient of acetonitrile in water as described in Table 62.
The wavelength of UV detector was scaled at 254 nm. An ion trap mass spectrometer equipped with electrospray ionization (ESI) interface was operated in positive ionization mode. Detection was carried out in the following modes: • MS mode (full scan) in positive ESI for analysis of working and treatment solutions and metabolites identification, • MS/MS mode (MRM, multiple reaction monitoring) in positive ESI for qualitative analysis of CLF, its IS and its metabolites. Briefly, specific parent ions formed for CLF, its IS and its identified metabolites were selected for MS/MS fragmentations.
Two working solutions of CLF were prepared. The first was prepared in 100% methanol for a final concentration of CLF at 109.6 μg/ml (SS CLF-MetOH) and the second was prepared in aqueous ethanol (water/ethanol/sodium hydroxide (50%), at 1000/500/30, v/v/v) for a final concentration of CLF at 71.6 μg/ml (SS CLF-EtOH).
Working solution used during this study were centrifuged 5 min at 3000 g and then diluted in a methanol/water mixture (50/50, v/v) in order to obtain three homogeneous solutions at 50 μg/ml. Then, 200 μl were transferred into 1.2 ml HPLC glass vials and sealed. Samples were placed into the refrigerated auto-sampler and 20 μl were injected into the HPLC-UV-MS system.
A blank sample was included (methanol/water, 50/50, v/v) to clearly distinguish interferences and impurities. The UV detection (scaled at 254 nm) allowed evaluating the solubility of CLF in both solvents by comparing CLF chromatographic peak areas. In case of signs of instability (additional chromatographic peaks), MS and then MS/MS (if needed) detections allowed to identify the impurities formed.

[3] = test system: serum proteins; experiment: Recovery of spiked CLF from individual human serum samples, classical and labelled-antibody competitive immunoassays; format: in vitro ADME; conditions: inferred from low recovery of CLF spiked into serum
Procedure: Streptavidin-coated microtitre plate Biotinylated anti-fluorescein antibody, “BJ/C” (NovAssay, using HyTest mouse monoclonal anti-fluorescein, cat code 5F3 2A3 (conjugate ref. DV038/182-1) or AbD Serotec sheep polyclonal anti-fluorescein, cat code 640001 (ref. DV038/182-2) is bound to the plate CLF from the sample competes with CLF-horseradish peroxidase, “CJ/C” (CLF-HRP; NovAssay, DV047/14) for the biotinylated anti-fluorescein antibody Bound CLF-HRP is measured colorimetrically using tetramethylbenzidine (TMB) substrate.
• Streptavidin-coated microtitre plate • Biotin-fluorescein (Sigma B9431) is bound to the plate • CLF from the sample competes with bound biotin-fluorescein for an anti-fluorescein-HRP conjugate (NovAssay, using HyTest mouse monoclonal anti-fluorescein, cat code 5F3 2A3 (conjugate ref. DV047/17-3) • Bound anti-fluorescein-HRP is measured colorimetrically using tetramethylbenzidine (TMB) substrate. […]
Given the success of achieving workable standard curves in both formats, 100 ng/ml of CLF was spiked into a number of individual human serum samples, and the percentage CLF recovery calculated (e.g. 50 ng/ml=50%). […]

**Q.** With CC(CCC(=O)NC(CCCCNC(=S)Nc1ccc(-c2c3ccc(=O)cc-3oc3cc(O)ccc23)c(C(=O)O)c1)C(=O)O)C1CCC2C3C(O)CC4CC(O)CCC4(C)C3CC(O)C12C [CLF, Cholyl-L-Lysyl-Fluorescein] as the compound, how does the “CLF stability in whole human blood” value ([1]; 37° C., 24 hours, 100 ng/ml) read?
**A.** Its value is “stable during 24 h; also recorded: stable over 24 hours”.

**Q.** And the plasmatic concentrations measured ([1]; whole blood spiked with 100 ng/ml, 37° C., 0-24 h)?
**A.** The plasmatic concentrations measured was 165.1 to 180.3 ng/mL.

**Q.** What about the “repartition of CLF in blood” value ([1]; whole blood spiked with CLF, plasma prepared by centrifugation) of the same compound?
**A.** The value was “mainly distributed in the plasmatic fraction; also recorded: mainly distributed in the plasma fraction”.

**Q.** What about the “percentage of compound remaining (by comparing with content at To), lowest over incubation” value ([1]; whole blood, 37° C., up to 24 h) of the same compound?
**A.** Its value is “at least 104.1%”.

**Q.** What about the CLF concentration ([1]; 37° C., 0.0 hours, plasmatic concentration) of the same compound?
**A.** Its CLF concentration is 165.1 ± 2.6 ng/mL.

**Q.** What about the CLF concentration ([1]; 37° C., 0.5 hours) of the same compound?
**A.** Its CLF concentration is 171.9 ± 6.7 ng/mL.

**Q.** What about the CLF concentration ([1]; 37° C., 2.0 hours) of the same compound?
**A.** Its CLF concentration is 180.3 ± 7.4 ng/mL.

**Q.** What about the CLF concentration ([1]; 37° C., 24.0 hours) of the same compound?
**A.** Its CLF concentration is 173.8 ± 1.7 ng/mL.

**Q.** And the CLF remaining ([1]; 37° C., 0.0 hours)?
**A.** Its CLF remaining is 100.0%.

**Q.** And the CLF remaining ([1]; 37° C., 0.5 hours)?
**A.** The CLF remaining was 104.1%.

**Q.** And the CLF remaining ([1]; 37° C., 2.0 hours)?
**A.** Its CLF remaining is 109.2%.

**Q.** What about the CLF remaining ([1]; 37° C., 24.0 hours) of the same compound?
**A.** The CLF remaining was 105.3%.

**Q.** And the “Peak Area, UV detection (254 nm)” value ([2]; Aqueous ammonium bicarbonate solution (0.1M), other batch of CLF)?
**A.** Its value is 5305.5*.

**Q.** What about the “peak area of CLF in aqueous ethanol mixture relative to methanol and aqueous ammonium bicarbonate 0.1 M (fold lower)” value ([2]; HPLC-UV 254 nm, water/ethanol/sodium hydroxide working solution) of the same compound?
**A.** Its value is “around 10 fold”.

**Q.** What about the “Peak Area, UV detection (254 nm)” value ([2]; SS CLF-EtOH working solution) of the same compound?
**A.** The value was 470.9.

**Q.** And the “Peak Area, UV detection (254 nm)” value ([2]; SS CLF-MetOH working solution)?
**A.** Its value is 4395.1.

**Q.** And the “binding of CLF to serum proteins” value [3]?
**A.** The value was “binds to serum proteins; also recorded: significant protein binding”.

— patent publication US20150212068A1, “Cholyl-L-Lysyl-Fluorescein Assay” (Novassay SA, priority 2012, published 2015)
